Data on 7 molecules can be found in patent US6162417A, “Pyrrolo isoquinolines” (Emory University, priority 1998, dated 2000).

Structures are written as SMILES. Like-named read-outs stand apart in the source and are kept apart here.

In data set [1] the target is T1, human serotonin transporter (Homo sapiens, UniProt P31645).
T1 construct: expressed in transfected cells; host or cells: HEK-293, stably transfected
Briefly: Binding site inhibition in HEK-293 cell membranes transfected with human serotonin transporter ([3H]Citalopram).

Data set [2] is described as follows: Tissue distribution of radioactivity after intravenous administration (Table 6). The data set is classed as in vivo, Sprague Dawley rats. The following applies: rat, i.v., mean (range) of 4 rats; for tissue uptake at 0.5 h: 30 min; for tissue uptake at 1 h: 60 min; for tissue uptake at 2 h: 120 min. The text has this: Distribution of Radioactivity in Tissues of Unfasted Male
Sprague Dawley Rats Following Intravenous Administration
of (+)-Trans-1,2,3,5,6,10b-hexahydro-6-
[4-iodophenyl]-pyrrolo[2,1-a]isoquinoline
Mean % Injected Dose/Gram (Range of 4 rats +/SD)

The next data set has as its system serotonin transporter. Briefly: Regional brain distribution of radioactivity after intravenous administration (Table 4). The data set is classed as in vivo, Sprague-Dawley rats. The following applies: rat, i.v. The source says:
(§1) Regional Distribution of Radioactivity in Tissues of Unfasted
(§2) Male Sprague-Dawley Rats Following Intravenous Administration
(§3) iodophenyl)pyrrolo[2,1-a]isoquinoline
(§4) The cerebellum contains a very low density of serotonin transporter sites and is taken as "background" in this analysis of regional uptake.

Experiment in data set [3]: as above
The data set is classed as in vivo, Sprague-Dawley rats. The conditions noted are these: iv, rat, i.v., mean of three rats; for tissue uptake at 0.5 h: 30 min; for tissue uptake at 1 h: 60 min; for tissue uptake at 2 h: 120 min.
Text: as §1, §2, §3, §4

[4] abbreviates: HEK-293 cells, human serotonin transporter, vs. [3H]Citalopram, read-out: 5-HT Ki.
[5] abbreviates: blood, read-out: Blood, mean % injected dose/gram.
Setting [6] is: brain, read-out: Brain, mean % injected dose/gram.
[7] abbreviates: heart, read-out: Heart, mean % injected dose/gram.
[8] abbreviates: kidney, read-out: Kidney, mean % injected dose/gram.
Where [9] appears, read: liver, read-out: Liver, mean % injected dose/gram.
Setting [10] is: lung, read-out: Lung, mean % injected dose/gram.
The mark [11] stands for this setting: muscle, read-out: Muscle, mean % injected dose/gram.
[12] abbreviates: spleen, read-out: Spleen, mean % injected dose/gram.
The mark [13] stands for this setting: thyroid, read-out: Thyroid, mean % injected dose/gram.
The mark [14] stands for this setting: cerebellum, read-out: Cerebellum, mean % injected dose/gram.
The mark [15] stands for this setting: cortex, read-out: Cortex, mean % injected dose/gram.
[16] abbreviates: hypothalamus, read-out: Hypothalamus, mean % injected dose/gram.
Setting [17] is: prefrontal cortex, read-out: Prefrontal Cortex, mean % injected dose/gram.
[18] abbreviates: striatum, read-out: Striatum, mean % injected dose/gram.

T1 sequence (P31645 whole entry): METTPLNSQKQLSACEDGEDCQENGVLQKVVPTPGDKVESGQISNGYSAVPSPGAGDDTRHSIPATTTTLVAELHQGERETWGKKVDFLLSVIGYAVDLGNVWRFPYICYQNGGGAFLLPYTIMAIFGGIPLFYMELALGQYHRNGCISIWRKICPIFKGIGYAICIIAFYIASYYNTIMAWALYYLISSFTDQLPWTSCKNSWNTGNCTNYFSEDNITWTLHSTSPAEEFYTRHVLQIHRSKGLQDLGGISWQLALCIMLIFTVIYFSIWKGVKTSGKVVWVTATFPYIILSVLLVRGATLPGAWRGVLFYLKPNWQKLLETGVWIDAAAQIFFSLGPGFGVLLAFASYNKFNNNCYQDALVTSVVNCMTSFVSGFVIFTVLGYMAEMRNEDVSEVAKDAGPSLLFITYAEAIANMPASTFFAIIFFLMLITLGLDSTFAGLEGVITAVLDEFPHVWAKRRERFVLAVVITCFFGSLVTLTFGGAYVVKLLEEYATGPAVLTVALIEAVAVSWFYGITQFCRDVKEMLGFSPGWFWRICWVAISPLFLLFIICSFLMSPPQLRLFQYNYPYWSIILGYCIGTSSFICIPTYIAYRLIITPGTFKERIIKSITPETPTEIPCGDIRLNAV

As for `FCCc1ccc([C@@H]2CN3CCC[C@@H]3c3ccccc32)cc1` (relative stereo) [racemic CH2 CH2 F], the Ki in data set [1] (setting [4]) was 13 nM.

In data set [1], `C=Cc1ccc([C@@H]2CN3CCC[C@@H]3c3ccccc32)cc1` (relative stereo) [racemic CH=CH2] came in with a Ki of 3.7 nM.

In the case of `FCCSc1ccc([C@@H]2CN3CCC[C@@H]3c3ccccc32)cc1` (relative stereo) [racemic SCH2 CH2 F], the Ki in data set [1] (setting [4]) is 5.7 nM.

Consider `FCCSc1ccc([C@@H]2CN3CCC[C@@H]3c3ccccc32)cc1` (single isomer, unassigned) [95% ee (+) SCH2 CH2 F], for which the Ki in data set [1] (setting [4]) is 2.6 nM.

`FCCSc1ccc([C@@H]2CN3CCC[C@@H]3c3ccccc32)cc1` (single isomer, unassigned) [95% ee (-) SCH2 CH2 F]: the Ki in data set [1] (setting [4]) was determined as 6.4 nM.

For the molecule `Ic1ccc([C@@H]2CN3CCC[C@@H]3c3ccccc32)cc1` [(+)-Trans-1,2,3,5,6,10b-hexahydro-6-[4-iodophenyl]-pyrrolo[2,1-a]isoquinoline], the tissue uptake at 0.5 h was 0.24 %ID/g in data set [2] (setting [5]); 0.85 %ID/g in data set [2] (setting [6]); 0.55 %ID/g in data set [2] (setting [7]); 0.84 %ID/g in data set [2] (setting [8]); 1.62 %ID/g in data set [2] (setting [9]); 1.53 %ID/g in data set [2] (setting [10]). The tissue uptake at 0.5 h is 0.27 %ID/g in data set [2] (setting [11]), 1 %ID/g in data set [2] (setting [12]) and 1.07 %ID/g in data set [2] (setting [13]). In addition, the tissue uptake at 1 h in data set [2] (setting [5]) is 0.3 %ID/g; in data set [2] (setting [6]) it was 0.7 %ID/g; in data set [2] (setting [7]), 0.51 %ID/g; in data set [2] (setting [8]), 0.66 %ID/g; in data set [2] (setting [9]), 1.26 %ID/g; in data set [2] (setting [10]), 1.28 %ID/g. Besides, the tissue uptake at 1 h in data set [2] (setting [11]) worked out at 0.26 %ID/g; in data set [2] (setting [12]) it was 0.74 %ID/g; in data set [2] (setting [13]), 1.5 %ID/g. The tissue uptake at 2 h in data set [2] (setting [5]) was 0.21 %ID/g; in data set [2] (setting [6]), 0.43 %ID/g; in data set [2] (setting [7]) it was 0.47 %ID/g; in data set [2] (setting [8]), 0.79 %ID/g; in data set [2] (setting [9]), 1.18 %ID/g; in data set [2] (setting [10]), 0.92 %ID/g. For the same molecule, the values for the tissue uptake at 2 h in data set [2] (setting [11]), in data set [2] (setting [12]) and in data set [2] (setting [13]) were 0.27 %ID/g, 0.54 %ID/g and 1.04 %ID/g, respectively.

`[123I]c1ccc([C@@H]2CN3CCC[C@@H]3c3ccccc32)cc1` [(+)-[^123 I]6, (+)-(6S, 10bR)-1,2,3,5,6,10b-hexahydro-6-(4'-[^123 I]iodophenyl)pyrrolo[2,1-a]-isoquinoline]: in the data set with serotonin transporter, the “accumulation in brain regions” value is “greatest accumulation in brain regions rich in serotoninergic neurons”. In addition, the Cortex/Cereb ratio in the data set on serotonin transporter (5 min) is 1.7; with serotonin transporter (30 min), 2.1; in the data set on serotonin transporter (60 min), 1.6; with serotonin transporter (120 min), 1.9. Moreover, the Hypothal/Cereb ratio was determined as 3.0 in the data set with serotonin transporter (5 min), 4.6 in the data set with serotonin transporter (30 min), 6.5 in the data set with serotonin transporter (60 min) and 7.3 in the data set with serotonin transporter (120 min). Further, the PrefCx/Cereb ratio is on record as 4.1 in the data set with serotonin transporter (5 min), 4.8 in the data set with serotonin transporter (30 min), 5.4 in the data set with serotonin transporter (60 min) and 5.8 in the data set with serotonin transporter (120 min). For the same molecule, the Striatum/Cereb ratio with serotonin transporter (5 min) stood at 2.9; in the data set on serotonin transporter (30 min) it was 3.2; in the data set with serotonin transporter (60 min) it was 4.0; in the data set on serotonin transporter (120 min) it was 5.3. In addition, the tissue uptake at 5 min in data set [3] (setting [14]) amounted to 1.23 %ID/g; in data set [3] (setting [15]), 2.06 %ID/g; in data set [3] (setting [16]), 3.69 %ID/g; in data set [3] (setting [17]) it was 5 %ID/g; in data set [3] (setting [18]) it was 3.43 %ID/g. In addition, the tissue uptake at 0.5 h in data set [3] (setting [14]) came to 0.78 %ID/g; in data set [3] (setting [15]), 1.6 %ID/g; in data set [3] (setting [16]) it was 3.59 %ID/g; in data set [3] (setting [17]), 3.72 %ID/g; in data set [3] (setting [18]), 2.46 %ID/g. In addition, the tissue uptake at 1 h in data set [3] (setting [14]) came to 0.58 %ID/g; in data set [3] (setting [15]), 0.89 %ID/g; in data set [3] (setting [16]), 3.73 %ID/g; in data set [3] (setting [17]), 3.13 %ID/g; in data set [3] (setting [18]), 2.28 %ID/g. Also, the tissue uptake at 2 h in data set [3] (setting [14]) came out at 0.39 %ID/g; in data set [3] (setting [15]), 0.74 %ID/g; in data set [3] (setting [16]) it was 2.85 %ID/g; in data set [3] (setting [17]), 2.25 %ID/g; in data set [3] (setting [18]) it was 2.06 %ID/g.
